Read-outs that look alike come from different tables or passages of the source.
How the values were obtained:
[1] = biological target: T1, ROCK2 (Homo sapiens, UniProt O75116); assay: Rho kinase inhibition assay (IMAP fluorescence polarization), ROCK2; assay type: biochemical;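 also: kinase reaction started with 10 µM ATP and run 60 min at room temperature, then phosphorylated substrate captured on IMAP beads for 30 min and fluorescence polarization read in mP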
T1 construct: purchased Upstate/Chemicon 14-451
Protocol: (§2) Following the pre-incubation, 10 μM ATP was added to initiate the reaction. After 60 minutes at room temperature, Molecular Devices IMAP™ binding solution was added to bind phosphorylated substrate. After 30 minutes of incubation in the presence of the IMAP™ beads, the fluorescence polarization was read and the ratio was reported as mP. IC50 values for compounds and EC50 values for ATP were calculated using the Prism software from Graphpad.

[2] = Compound plasma concentrations in unsensitized mice at 15 min post administration; assay type: in vivo; conditions: mouse, 15 μmol/kg; mean compound plasma concentration in mice at 15 minutes post oral administration; read-out: Mouse Oral PK
[3] = Rat oral pharmacokinetics (plasma); assay type: in vivo; conditions: 20-30 μmol/kg
Protocol: Plasma (EDTA K2 anticoagulant) was collected from male, cannulated, CD Sprague Dawley rats to determine the pharmacokinetics of formulations containing compound inhibitors of Rho kinase. Each animal was dosed orally with a 4 ml/kg solution or suspension of each test compound in 10 mM acetate buffered saline, pH 4.5 at a final concentration range of 20-30 μmol/kg. Blood was collected at 0.25, 0.5, 1, 2, 4, 6, 8, and 24 hours. Plasma samples were assayed for the concentration of the test compound using an on-line, solid phase extraction LC/MS/MS analysis system.
Samples were analyzed on a QSTAR Elite, hybrid quadrupole time-of-flight mass spectrometer (Applied Biosystems, Framingham, Mass.) coupled with a Symbiosis Pharma integrated, on-line SPE-HPLC system (Spark Holland Inc., Plainsboro, N.J.). Analyst QS 2.0 software was used for instrument control, data acquisition and processing. […] Mobile Phase A consisted of 0.1% ammonium hydroxide in water and Mobile Phase B consisted of 0.1% formic acid in acetonitrile. Pharmacokinetic analyses were performed using WinNonlin software version 5.2 (Pharsight Corporation, Mountain View, Calif.).
As determined from the plasma concentration versus time curves, the time to peak and peak exposure are represented by the values Tmax and Cmax, respectively. The AUC values (nM*hr) shown were calculated as the areas under the plasma concentration versus time curves from time zero through the time of the last observable value and represent the total exposure of the compound over the course of the study. Half-life values or the amount of time required for the plasma levels of the compound to decline to half the initial value are represented as t½.

[4] = biological target: T2, ROCK1 (Homo sapiens, UniProt Q13464); assay: Rho kinase inhibition assay (IMAP fluorescence polarization), ROCK1; assay type: biochemical;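 also: kinase reaction run 60 min at room temperature, then phosphorylated substrate captured on IMAP beads for 30 min, with fluorescence polarization read in mP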
T2 construct: purchased Upstate/Chemicon 14-601
Protocol: as §2

[5] = biological target: T3, Akt3 human enzyme (Homo sapiens, UniProt Q9Y243); assay: Akt3 inhibition assay (IMAP FP); assay type: biochemical;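 also: kinase reaction run 60 min at room temperature after 30 µM ATP start, phosphorylated substrate captured on IMAP beads and read as fluorescence polarization (mP)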
T3 construct: purchased Upstate Chemicon 14-502

[6] = system: human monocytes; assay: Human monocyte cytokine secretion assay (LPS-stimulated); assay type: cell-based; conditions: average percent of stimulated IL-6 secretion from human monocytes at 10 μM of test compound
Protocol: Peripheral blood from healthy human volunteers was collected and the monocytes isolated via Ficoll-paque density centrifugation. […] The cells were allowed to pre-incubate with test compound at the indicated concentration for 30 minutes (37° C., 5% CO2, humidified air); after which the supernatant was removed and media containing compound and 1 ng/mL LPS was added. Cells were allowed to incubate with compounds and LPS for 4 hours at 37° C. after which the supernatant was removed and stored at −80° C. Cytokine concentrations in the supernatant were determined using commercially available Bio-Rad Bio-plex™ kits according the manufacturer's instructions.

[7] = biological target: T4, p70S6K human enzyme (Homo sapiens, UniProt P23443, T412E); assay: p70S6K inhibition assay (IMAP FP); assay type: biochemical;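 also: kinase reaction run at room temperature, phosphorylated substrate captured on IMAP beads and read as fluorescence polarization in mP, IC50 then converted to Ki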
T4 construct: purchased Upstate Chemicon 14-486

[8] = system: A-10 rat thoracic aorta cells; assay: PDGF-stimulated smooth muscle cell proliferation assay (BrdU incorporation); assay type: cell-based; conditions: A-10 cells, 10 ng/mL PDGF, BrdU incorporation, percent of total challenge-stimulated proliferation; for Percent of PDGF Induced Proliferation at 1 μM Avg: 1 μM test compound; for Percent of PDGF Induced Proliferation at 10 μM Avg: 10 μM test compound;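 as to all read-outs here: cells kept in serum-free medium, BrdU allowed to incorporate for 24 h, then incorporated label detected fluorometrically with an anti-BrdU antibody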
Protocol: Effects on cell proliferation were measured using a bromodeoxyuridine (BrdU) incorporation assay. […] Serum free media containing 01% BSA was added to the cells. 24 hours later the media was removed and replaced with warmed serum free media. […] Proliferation was then monitored using the BrdU Cell Proliferation Assay, HTS (Calbiochem cat. #t HTS01). BrdU was allowed to incorporate into cells for 24 hours prior to the addition of fixative/denaturing solution and the fluorometric detection of incorporated BrdU using a BrdU antibody as per manufacturer's directions. Data are reported as a percent of the PDGF-stimulated BrdU incorporation.

[9] = biological target: T5, GCK (Homo sapiens, UniProt Q12851); assay: Kinase panel screen (KinaseProfiler), GCK; assay type: biochemical; conditions: for activity at 10 µM: 10 μM test compound, 10 μM ATP, read-out: GCK Percent inhibition, 10 μM
T5 construct: purchased Upstate, Millipore Bioscience Division (KinaseProfiler service)
T5 sequence (Q12851 1-820): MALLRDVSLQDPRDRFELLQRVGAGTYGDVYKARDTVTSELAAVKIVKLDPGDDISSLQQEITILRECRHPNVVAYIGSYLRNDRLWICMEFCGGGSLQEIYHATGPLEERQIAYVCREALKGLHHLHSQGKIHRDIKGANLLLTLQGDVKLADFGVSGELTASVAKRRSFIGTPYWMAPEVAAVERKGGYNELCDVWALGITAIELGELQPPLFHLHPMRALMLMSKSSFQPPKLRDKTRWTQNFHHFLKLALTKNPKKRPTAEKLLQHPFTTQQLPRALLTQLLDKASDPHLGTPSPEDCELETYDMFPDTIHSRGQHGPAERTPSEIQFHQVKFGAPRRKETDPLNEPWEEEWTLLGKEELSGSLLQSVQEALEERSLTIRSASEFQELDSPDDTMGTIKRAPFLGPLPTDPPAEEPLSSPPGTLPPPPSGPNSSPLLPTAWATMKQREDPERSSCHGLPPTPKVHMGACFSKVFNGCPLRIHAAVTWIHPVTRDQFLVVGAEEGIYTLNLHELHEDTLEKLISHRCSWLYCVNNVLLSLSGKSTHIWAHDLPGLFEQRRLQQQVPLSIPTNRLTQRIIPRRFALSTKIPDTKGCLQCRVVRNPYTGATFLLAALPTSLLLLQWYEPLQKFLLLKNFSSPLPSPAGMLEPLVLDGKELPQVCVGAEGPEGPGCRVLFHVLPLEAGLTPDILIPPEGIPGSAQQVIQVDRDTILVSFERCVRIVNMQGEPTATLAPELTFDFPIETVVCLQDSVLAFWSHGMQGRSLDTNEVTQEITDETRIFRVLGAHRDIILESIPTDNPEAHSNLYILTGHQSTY
Protocol: (§1) Compounds of Formulae I and II were examined for activity against a selected panel of kinases using the KinaseProfiler™ enzyme profiling services (Upstate, Millipore Bioscience Division). Percent kinase activity at 10 μM and 1 μM test compound and 10 μM ATP was determined against 40 wild-type recombinant human kinases according to Upstate's standard protocol: ASK1, BTK, CSK, c-RAF, GCK, GSK3β, IKKα, IKKβ, IRAK1, IRAK4, JNK1α1, JNK2α2, JNK3, ERK1, ERK2, MAPKAP-K2, MAPKAP-K3, MEK1, MKK4, MKK6, MKK7β, Mnk2, MSK1, PAK3, PDK1, PRAK, ROCK1, Rsk2, SAPK2a, SAPK2b, SAPK3, SAPK4, SRPK1, SRPK2, Syk, TAK1, TBK1, PI3-Kβ, PI3-Kγ, PI3-Kδ.

[10] = biological target: T6, Mnk2 (Homo sapiens, UniProt Q9HBH9); assay: Kinase panel screen (KinaseProfiler), Mnk2; assay type: biochemical; conditions: 10 μM ATP; for activity at 1 µM: 1 μM test compound, read-out: Mnk2 Percent inhibition, 1 μM; for activity at 10 µM: 10 μM test compound, read-out: Mnk2 Percent inhibition, 10 μM
T6 construct: purchased Upstate, Millipore Bioscience Division (KinaseProfiler service)
Protocol: as §1

[11] = biological target: T7, IRAK4 (Homo sapiens, UniProt Q9NWZ3); assay: Kinase panel screen (KinaseProfiler), IRAK4; assay type: biochemical; conditions: 10 μM ATP; for activity at 1 µM: 1 μM test compound, read-out: IRAK4 Percent inhibition, 1 μM; for activity at 10 µM: 10 μM test compound, read-out: IRAK4 Percent inhibition, 10 μM
T7 construct: purchased Upstate, Millipore Bioscience Division (KinaseProfiler service)
T7 sequence (Q9NWZ3 1-460): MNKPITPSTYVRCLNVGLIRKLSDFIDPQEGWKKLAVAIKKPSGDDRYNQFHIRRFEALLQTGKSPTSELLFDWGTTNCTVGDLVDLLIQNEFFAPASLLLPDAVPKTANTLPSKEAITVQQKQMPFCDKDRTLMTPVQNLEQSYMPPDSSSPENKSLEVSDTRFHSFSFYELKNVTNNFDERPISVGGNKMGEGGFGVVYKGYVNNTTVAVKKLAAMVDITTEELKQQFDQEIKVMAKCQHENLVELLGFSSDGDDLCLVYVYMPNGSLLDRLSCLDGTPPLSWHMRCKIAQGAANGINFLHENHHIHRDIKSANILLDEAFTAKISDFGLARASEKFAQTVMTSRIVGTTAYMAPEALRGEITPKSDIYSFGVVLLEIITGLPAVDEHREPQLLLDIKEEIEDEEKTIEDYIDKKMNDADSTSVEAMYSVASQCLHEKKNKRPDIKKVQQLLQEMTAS
Protocol: as §1

[12] = system: ova-sensitized, ova-challenged mice; assay: Prevention of airway hyperreactivity (Penh, methacholine) in mouse ovalbumin sensitization model; assay type: in vivo
Protocol: The anti-inflammatory dosing paradigm consists of dosing the animals once a day starting on day 27 and finishing on either day 30 or 31 (1 hr prior to the aerosolized ovalbumin challenges on days 28 to 30) but not on day 32 when hyperreactivity evaluation occurs. […] Exposure to the methacholine doses consisted of a 3 minute period during which a nebulizer was aerosolizing the methacholine and an additional 3 minute period following the cessation of nebulization. […] Enhanced pause (Penh), a unitless index of airway hyperreactivity, is derived from the expiratory side of the respiratory waveform measured via the plethysmograph and is used as an indirect measure of airway resistance and hyperreactivity. […] Following the methacholine dose response, BALF was collected and all animals were anesthetized, bled and euthanized. […] The Penh value at each of the dose levels of methacholine represents the 6-minute average response. Change from baseline (CFB) in Penh was calculated at each methacholine dose and the area under the curve (AUC) for these CFB values was calculated using the trapezoidal rule. This same approach was applied for each mouse across multiple experiments. […] Data from equal experimental conditions across experiments performed on different days were pooled for statistical analysis and data reporting. […] A random intercept for each experiment was assumed to account for possible similarities of the results obtained from a given experiment (i.e., as a “blocking effect”). […] For FIG. 9, linear AUC values from compound treated mice were reported as a percent of linear AUC values from vehicle-treated ovalbumin-sensitized/ovalbumin-challenged (asthmatic) mice.

[13] = biological target: T8, ERK2 (Homo sapiens, UniProt P28482); assay: Kinase panel screen (KinaseProfiler), ERK2; assay type: biochemical
T8 construct: purchased Upstate, Millipore Bioscience Division (KinaseProfiler service)
Protocol: as §1

[14] = biological target: T9, IRAK1 (Homo sapiens, UniProt P51617); assay: Kinase panel screen (KinaseProfiler), IRAK1; assay type: biochemical; conditions: 10 μM ATP; for activity at 1 µM: 1 μM test compound, read-out: IRAK1 Percent inhibition, 1 μM; for activity at 10 µM: 10 μM test compound, read-out: IRAK1 Percent inhibition, 10 μM
T9 construct: purchased Upstate, Millipore Bioscience Division (KinaseProfiler service)
Protocol: as §1

[15] = biological target: T10, ERK1 (Homo sapiens, UniProt P27361); assay: Kinase panel screen (KinaseProfiler), ERK1; assay type: biochemical; conditions: 10 μM ATP
T10 construct: purchased Upstate, Millipore Bioscience Division (KinaseProfiler service)
Protocol: as §1

[16] = 10 μM ATP, read-out: ROCK2 Ki, Avg
[17] = 30 μM ATP, Ki=IC50/(1+([ATP Challenge]/EC50 ATP)), read-out: Akt3 Ki, Avg
[18] = 30 μM ATP, Ki=IC50/(1+([ATP Challenge]/EC50 ATP)), read-out: p70S6K Ki, Avg
[19] = average Ki, read-out: p70S6K Ki

T6 sequence (Q9HBH9 whole entry): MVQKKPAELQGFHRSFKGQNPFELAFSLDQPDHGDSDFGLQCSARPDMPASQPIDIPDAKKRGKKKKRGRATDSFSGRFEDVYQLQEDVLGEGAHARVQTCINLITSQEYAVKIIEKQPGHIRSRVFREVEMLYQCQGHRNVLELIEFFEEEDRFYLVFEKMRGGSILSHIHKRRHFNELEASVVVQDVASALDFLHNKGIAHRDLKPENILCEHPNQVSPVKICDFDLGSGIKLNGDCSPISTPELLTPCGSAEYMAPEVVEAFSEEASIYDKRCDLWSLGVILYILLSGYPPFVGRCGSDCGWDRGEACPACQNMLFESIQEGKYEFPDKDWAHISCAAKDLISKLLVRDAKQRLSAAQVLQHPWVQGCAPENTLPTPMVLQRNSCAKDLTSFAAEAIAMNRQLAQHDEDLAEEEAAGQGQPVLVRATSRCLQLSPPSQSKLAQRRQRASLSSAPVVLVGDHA
T3 sequence (Q9Y243 whole entry): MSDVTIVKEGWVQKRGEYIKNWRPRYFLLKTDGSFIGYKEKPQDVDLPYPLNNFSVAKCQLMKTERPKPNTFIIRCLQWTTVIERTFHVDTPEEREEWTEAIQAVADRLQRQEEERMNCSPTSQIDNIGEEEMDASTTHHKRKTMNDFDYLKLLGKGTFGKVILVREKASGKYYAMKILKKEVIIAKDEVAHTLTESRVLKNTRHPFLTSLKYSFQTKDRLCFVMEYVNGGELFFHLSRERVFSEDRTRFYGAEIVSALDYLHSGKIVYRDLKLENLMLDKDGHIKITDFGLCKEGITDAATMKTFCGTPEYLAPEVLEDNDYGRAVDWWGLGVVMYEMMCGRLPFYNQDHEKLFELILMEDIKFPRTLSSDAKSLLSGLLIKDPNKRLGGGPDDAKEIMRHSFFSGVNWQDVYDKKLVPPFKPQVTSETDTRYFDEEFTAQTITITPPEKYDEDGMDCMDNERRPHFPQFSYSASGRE
T8 sequence (P28482 whole entry): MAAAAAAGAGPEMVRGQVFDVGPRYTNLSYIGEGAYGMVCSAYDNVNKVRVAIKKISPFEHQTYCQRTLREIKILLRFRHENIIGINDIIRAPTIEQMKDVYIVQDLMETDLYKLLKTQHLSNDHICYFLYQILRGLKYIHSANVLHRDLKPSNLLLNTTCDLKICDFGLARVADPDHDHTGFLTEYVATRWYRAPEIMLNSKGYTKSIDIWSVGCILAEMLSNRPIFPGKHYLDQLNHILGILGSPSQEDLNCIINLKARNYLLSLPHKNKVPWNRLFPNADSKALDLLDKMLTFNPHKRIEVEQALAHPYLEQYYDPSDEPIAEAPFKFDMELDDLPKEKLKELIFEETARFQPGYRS
T4 sequence (P23443 1-421 T412E limits assumed): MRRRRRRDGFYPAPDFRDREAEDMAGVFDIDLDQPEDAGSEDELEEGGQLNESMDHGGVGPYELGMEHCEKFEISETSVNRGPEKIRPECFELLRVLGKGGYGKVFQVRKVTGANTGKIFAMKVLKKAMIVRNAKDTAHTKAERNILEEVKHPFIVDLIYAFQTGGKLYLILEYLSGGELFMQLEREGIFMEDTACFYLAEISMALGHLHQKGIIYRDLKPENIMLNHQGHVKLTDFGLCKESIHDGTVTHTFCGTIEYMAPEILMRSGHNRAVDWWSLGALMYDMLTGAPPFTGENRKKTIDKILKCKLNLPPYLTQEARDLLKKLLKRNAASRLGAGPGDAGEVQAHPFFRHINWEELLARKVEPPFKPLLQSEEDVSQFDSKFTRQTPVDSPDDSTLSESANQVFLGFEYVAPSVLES
T1 sequence (O75116 11-552 limits assumed): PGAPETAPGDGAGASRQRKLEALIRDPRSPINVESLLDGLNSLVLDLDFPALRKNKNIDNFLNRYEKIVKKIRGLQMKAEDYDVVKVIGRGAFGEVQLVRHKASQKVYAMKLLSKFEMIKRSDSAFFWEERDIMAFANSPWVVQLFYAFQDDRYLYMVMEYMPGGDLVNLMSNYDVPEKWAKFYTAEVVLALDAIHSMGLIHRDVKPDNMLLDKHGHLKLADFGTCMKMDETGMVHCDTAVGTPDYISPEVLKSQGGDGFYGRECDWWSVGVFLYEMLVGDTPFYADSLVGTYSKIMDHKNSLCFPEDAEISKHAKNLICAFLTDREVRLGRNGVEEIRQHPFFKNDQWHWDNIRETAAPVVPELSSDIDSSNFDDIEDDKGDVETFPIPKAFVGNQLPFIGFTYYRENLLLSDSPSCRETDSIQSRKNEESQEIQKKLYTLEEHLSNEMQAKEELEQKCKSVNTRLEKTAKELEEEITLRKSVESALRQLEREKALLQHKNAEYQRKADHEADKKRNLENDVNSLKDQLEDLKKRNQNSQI
T9 sequence (P51617 whole entry): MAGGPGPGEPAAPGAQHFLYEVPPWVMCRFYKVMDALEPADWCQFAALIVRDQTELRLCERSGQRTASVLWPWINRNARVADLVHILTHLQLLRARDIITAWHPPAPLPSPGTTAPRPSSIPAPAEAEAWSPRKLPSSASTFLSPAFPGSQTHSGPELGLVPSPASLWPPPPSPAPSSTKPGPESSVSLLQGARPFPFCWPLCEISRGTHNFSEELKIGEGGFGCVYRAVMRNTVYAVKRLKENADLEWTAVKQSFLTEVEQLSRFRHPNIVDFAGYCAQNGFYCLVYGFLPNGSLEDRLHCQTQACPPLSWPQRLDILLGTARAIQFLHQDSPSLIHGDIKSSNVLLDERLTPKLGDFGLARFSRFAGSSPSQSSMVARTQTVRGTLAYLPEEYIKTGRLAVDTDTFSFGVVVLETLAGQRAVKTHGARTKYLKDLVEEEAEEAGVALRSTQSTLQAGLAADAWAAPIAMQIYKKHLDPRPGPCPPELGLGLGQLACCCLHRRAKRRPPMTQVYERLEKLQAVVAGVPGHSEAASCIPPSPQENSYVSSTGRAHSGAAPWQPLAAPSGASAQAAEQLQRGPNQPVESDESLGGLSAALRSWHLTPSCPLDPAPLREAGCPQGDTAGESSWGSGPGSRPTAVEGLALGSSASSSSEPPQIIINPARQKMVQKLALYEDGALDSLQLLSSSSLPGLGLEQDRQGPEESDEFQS
T2 sequence (Q13464 17-535 limits assumed): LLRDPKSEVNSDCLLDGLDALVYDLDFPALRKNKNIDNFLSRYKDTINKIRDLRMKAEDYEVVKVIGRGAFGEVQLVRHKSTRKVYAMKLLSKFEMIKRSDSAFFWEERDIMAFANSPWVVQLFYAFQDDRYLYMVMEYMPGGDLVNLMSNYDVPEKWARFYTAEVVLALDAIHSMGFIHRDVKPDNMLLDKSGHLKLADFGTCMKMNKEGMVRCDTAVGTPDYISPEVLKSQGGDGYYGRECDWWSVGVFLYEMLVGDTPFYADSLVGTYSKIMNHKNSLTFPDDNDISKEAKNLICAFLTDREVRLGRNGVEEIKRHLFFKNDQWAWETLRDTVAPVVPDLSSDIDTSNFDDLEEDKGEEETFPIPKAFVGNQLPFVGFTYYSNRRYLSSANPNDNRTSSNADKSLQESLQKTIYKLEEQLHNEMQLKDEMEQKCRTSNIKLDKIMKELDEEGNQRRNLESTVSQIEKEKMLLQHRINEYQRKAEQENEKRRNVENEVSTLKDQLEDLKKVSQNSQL
T10 sequence (P27361 whole entry): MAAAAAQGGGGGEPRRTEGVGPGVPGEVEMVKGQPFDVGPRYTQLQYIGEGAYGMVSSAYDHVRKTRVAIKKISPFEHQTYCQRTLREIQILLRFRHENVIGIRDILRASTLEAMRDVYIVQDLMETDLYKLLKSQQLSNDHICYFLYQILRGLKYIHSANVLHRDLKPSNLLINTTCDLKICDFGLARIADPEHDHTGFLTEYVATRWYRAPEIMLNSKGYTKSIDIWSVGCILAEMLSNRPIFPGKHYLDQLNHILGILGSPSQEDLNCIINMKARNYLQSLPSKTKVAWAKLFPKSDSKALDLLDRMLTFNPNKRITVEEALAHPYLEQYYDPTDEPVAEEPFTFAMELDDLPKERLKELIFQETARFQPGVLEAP

Work on `CSc1ccc(CN2CCC[C@@H](Nc3ccc4[nH]ncc4c3)C2)cc1` [Compound 1.074, (R)-N-(1-(4-(methylthio)benzyl)piperidin-3-yl)-1H-indazol-5-amine] yielded a Ki [1, 16] of 4.1 nM, a Ki ([1]; average Ki, read-out: ROCK2 Ki) of 4.1 nM and a concentration at 15 min [2] of 506 nM. It also gave a Vz_F ([3]; mean n = 3) of 45.7 L/kg, an AUC(0-t) ([3]; male, CD Sprague Dawley, mean n = 3) of 1.17 µM·h and a Cmax ([3]; male, CD Sprague Dawley, mean n = 3, read-out: Cmax) of 735 nM. The Tmax ([3]; male, CD Sprague Dawley, mean n = 3, read-out: Tmax) was 25.2 min, the Ki ([4]; Avg, 10 μM ATP) was 40.1 nM and the Ki ([4]; average Ki) was 40.1 nM. The Ki [5, 17] was 437 nM, the Ki ([5]; average Ki, read-out: Akt3 Ki) was 437 nM and the “IL-6, %” value [6] was 96.0%. For the same compound, the Ki [7, 18] was 548 nM, the Ki [7, 19] was 548 nM and the “Percent of PDGF Induced Proliferation at 1 μM Avg” value [8] was 79.9%. The “Percent of PDGF Induced Proliferation at 10 μM Avg” value [8] was 46.9%.

With `Cc1ccc(CN2CCC[C@@H](Nc3ccc4[nH]ncc4c3)C2)cc1OCCO` [Compound 1.161, (R)-2-(5-((3-(1H-indazol-5-ylamino)piperidin-1-yl)methyl)-2-methylphenoxy)ethanol] the Ki [1, 16] was 2.5 nM, the Ki ([1]; average Ki, read-out: ROCK2 Ki) was 2.5 nM and the “GCK Percent inhibition, 1 μM” value [9] was 96%. The activity at 10 µM [9] was 91%, the activity at 1 µM [10] was 108% and the activity at 10 µM [10] was 106%. The Ki ([4]; Avg, 10 μM ATP) was 9.9 nM, the Ki ([4]; average Ki) was 9.9 nM and the activity at 1 µM [11] was 96%. The activity at 10 µM [11] was 109%, the “log10AUC (Penh)” value ([12]; 0.5 μmol/kg/intratracheal, days 27 to 31) was 2.0405 and the airway hyperreactivity ([12]; intratracheal once a day during days 27 to 31) was “prevention of airway hyperreactivity”. For the same compound, the Ki [5, 17] was 63.5 nM, the Ki ([5]; average Ki, read-out: Akt3 Ki) was 63.5 nM and the Ki [7, 18] was 129 nM. For the same compound, the Ki [7, 19] was 129 nM, the “ERK2 Percent inhibition, 1 μM” value [13] was 104% and the “ERK2 Percent inhibition, 10 μM” value [13] was 92%. It also gave an activity at 1 µM [14] of 106% and an activity at 10 µM [14] of 99%.

With `NC(=O)Cn1ccc2cc(CN3CCC[C@@H](Nc4ccc5[nH]ncc5c4)C3)ccc21` [Compound 1.162, (R)-2-(5-((3-(1H-indazol-5-ylamino)piperidin-1-yl)methyl)-1H-indol-1-yl)acetamide] the Ki [1, 16] was 2.8 nM, the Ki ([1]; average Ki, read-out: ROCK2 Ki) was 2.8 nM and the “GCK Percent inhibition, 1 μM” value [9] was 93%. For the same compound, the activity at 10 µM [9] was 75%, the concentration at 15 min [2] was 76 nM and the activity at 1 µM [10] was 111%. The activity at 10 µM [10] was 65%, the Ki ([4]; Avg, 10 μM ATP) was 15.2 nM and the Ki ([4]; average Ki) was 15.2 nM. It also gave an activity at 1 µM [11] of 105%, an activity at 10 µM [11] of 88% and a Ki [5, 17] of 92 nM. For the same compound, the Ki ([5]; average Ki, read-out: Akt3 Ki) was 92 nM, the activity at 1 µM ([15]; 1 μM test compound, read-out: ERK1 Percent inhibition, 1 μM) was 84% and the activity at 10 µM ([15]; 10 μM test compound, read-out: ERK1 Percent inhibition, 10 μM) was 50%. The Ki [7, 18] was 387 nM, the Ki [7, 19] was 387 nM and the “Percent of PDGF Induced Proliferation at 1 μM Avg” value [8] was 55.6%. The “Percent of PDGF Induced Proliferation at 10 μM Avg” value [8] was 42.5%, the “ERK2 Percent inhibition, 1 μM” value [13] was 89% and the “ERK2 Percent inhibition, 10 μM” value [13] was 60%. The activity at 1 µM [14] was 100% and the activity at 10 µM [14] was 97%.

— patent US20090325959A1 (priority 2008, published 2009)
